This is an account of results in the supplement of paper PMC7224384.

For assay [1], the system named is MDA-MB-453. In words: drug sensitivity score (DSS), in combination with BLU9931 (DSS (weighted AUC score)); higher = more sensitive (stronger viability decrease); extreme values may be limits of the assay. The settings on record: BLU9931 100 nM; 72 h. In outline:
(§1)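 Each 384-well plate held compounds from the FIMM Oncology set, predispensed in singlicate at five 10-fold dilutions spanning a 10,000-fold range, and each well then received 2000 MDA-MB-453 cells in medium with or without an FGFR4 inhibitor at 100 nM final. Plates stayed at 37 °C, 5% CO2 for 72 h, after which cellular ATP was measured with CellTiterGlo 2.0. Readings were converted per plate into percent viability against control wells, and the drug sensitivity score was taken as a weighted area under a four-parameter logistic fit.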

For assay [2], the system named is MDA-MB-453. In words: drug sensitivity score (DSS), single agent (DSS (weighted AUC score)); higher = more sensitive (stronger viability decrease); extreme values may be limits of the assay. The settings on record: BLU9931 0 nM; 72 h. In short, it runs like this: as §1

Take `Nc1ccccc1NC(=O)c1ccc(CNC(=O)OCc2cccnc2)cc1` [Entinostat]: the drug sensitivity score in the assay with MDA-MB-453 [1] came out at 8.7; in the assay with MDA-MB-453 [2], 9.2.
Turning to `NCCNc1ccc(NCCN)c2c1C(=O)c1ccncc1C2=O` [Pixantrone], the drug sensitivity score in the assay with MDA-MB-453 [1] and in the assay on MDA-MB-453 [2] was 1 in each case.
For the compound `CNc1nc(Nc2cn(C(C)(C)C#N)nc2C)ncc1C(F)(F)F` [GNE-0877], the drug sensitivity score in the assay with MDA-MB-453 [1] and with MDA-MB-453 [2] was 0 throughout.
On to `C/C(=C\c1csc(C)n1)[C@@H]1C[C@@H]2O[C@]2(C)CCC[C@H](C)[C@H](O)[C@@H](C)C(=O)C(C)(C)[C@@H](O)CC(=O)N1` [Ixabepilone], for which the drug sensitivity score in the assay with MDA-MB-453 [1] was found to be 4.1; in the assay on MDA-MB-453 [2], 5.6.
The like results for `O=C1NC(=O)[C@@H](c2cn3c4c(cccc24)CCC3)[C@@H]1c1c[nH]c2ccccc12` [Tivantinib] were, in that order, 2 and 4.4.
For the compound `O=C(Nc1c[nH]nc1-c1nc2ccc(CN3CCOCC3)cc2[nH]1)NC1CC1` [AT9283], the drug sensitivity score in the assay with MDA-MB-453 [1] and in the assay on MDA-MB-453 [2] was 2.3 throughout.
Regarding `Cc1sc2c(c1C)C(c1ccc(Cl)cc1)=N[C@@H](CC(=O)Nc1ccc(O)cc1)c1nnc(C)n1-2` [Birabresib], the drug sensitivity score in the assay with MDA-MB-453 [1] and in the assay with MDA-MB-453 [2] was 15.2 in each case.
Consider `COc1cc2ncnc(Oc3cccc(NC(=O)Nc4cc(C(C)(C)C(F)(F)F)on4)c3)c2cc1OC`, for which the drug sensitivity score came to 3.2 in the assay with MDA-MB-453 [1] and 5.1 with MDA-MB-453 [2].
The matching figures for `CC(C)(C)c1cnc(CSc2cnc(NC(=O)C3CCNCC3)s2)o1` [SNS-032]: 19.1 and 18.1.
For the compound `CC(=O)Nc1ccc(C(=O)Nc2ccccc2N)cc1` [Tacedinaline], the values for the drug sensitivity score with MDA-MB-453 [1] and in the assay with MDA-MB-453 [2] were 0.4 and 1.3, respectively.
As for `COCCNCc1ccc(-c2cc3nccc(Oc4ccc(NC(=S)NC(=O)Cc5ccc(F)cc5)cc4F)c3s2)nc1` [Glesatinib], the drug sensitivity score in the assay on MDA-MB-453 [1] was found to be 0.5; in the assay on MDA-MB-453 [2], 0.7.
`Cc1ccc(-n2nc(C(C)(C)C)cc2NC(=O)Nc2ccc(OCCN3CCOCC3)c3ccccc23)cc1` [Doramapimod]: the drug sensitivity score with MDA-MB-453 [1] stood at 1.8; with MDA-MB-453 [2], 2.3.
The matching figures for `O=C1Cc2cc(C(=O)NC3C[C@H]4CC[C@@H](C3)N4S(=O)(=O)CC3CCN(CCCC(F)(F)F)CC3)c(Cl)cc2N1` (stereo partly drawn): 0 and 0.
`CC(C)(C)C[C@@H]1N[C@@H](C(=O)N[C@H]2CC[C@H](O)CC2)[C@H](c2cccc(Cl)c2F)[C@]12C(=O)Nc1cc(Cl)ccc12`: the drug sensitivity score was determined as 0 in the assay with MDA-MB-453 [1] and 0.9 in the assay on MDA-MB-453 [2].
On to `Cn1nccc1Nc1nccc(-c2ccn([C@H](CO)c3ccc(Cl)c(F)c3)c(=O)c2)n1` [Ravoxertinib], for which the values for the drug sensitivity score in the assay on MDA-MB-453 [1] and with MDA-MB-453 [2] were 5.6 and 6.9, respectively.
The matching figures for `O=C(/C=C/c1cccnc1)NCCCCC1CCN(C(=O)c2ccccc2)CC1` [Daporinad]: 28.6 and 30.5.
`COc1ccccc1S(=O)(=O)Nc1ccc2c(c1)CN(C)C(=O)N2` [PFI-1]: the drug sensitivity score amounted to 8.4 in the assay with MDA-MB-453 [1] and 8.2 in the assay on MDA-MB-453 [2].
The like results for `CNC(=O)CN1CCC(Oc2cc3c(Nc4cccc(Cl)c4F)ncnc3cc2OC)CC1` [Sapitinib] were, in that order, 4.8 and 2.2.
The like results for `COc1cccc(-c2ccc(NC(=O)C3=C(C(=O)O)CCC3)c(F)c2)c1` [Vidofludimus] were, in that order, 0 and 0.4.
The matching figures for `CCN(CC)Cc1ccc2cc(COC(=O)Nc3ccc(C(=O)NO)cc3)ccc2c1` [Givinostat]: 10.3 and 11.
As for `COc1cc2c(cc1OCCCN1CCCC1)N=C(N)C21CCC1` [A-366], the drug sensitivity score with MDA-MB-453 [1] and with MDA-MB-453 [2] was 0 each time.
Consider `COc1c(C)cnc(Cn2cnc3c(Cl)nc(N)nc32)c1C` [BIIB021], for which the drug sensitivity score in the assay on MDA-MB-453 [1] came out at 20.1; in the assay with MDA-MB-453 [2] it was 19.5.
For `Cc1cc(F)c(C(=O)Nc2cccc(-c3nncn3C(C)C)n2)cc1-n1cnc(C2CC2)c1` [Selonsertib], the drug sensitivity score in the assay with MDA-MB-453 [1] and with MDA-MB-453 [2] was 0 each time.
With `CC(O)c1cc(C(=O)N[C@@H](C)Cn2ccc(-c3ccc(C#N)c(Cl)c3)n2)n[nH]1` (stereo partly drawn) [ODM-201], the figures for the drug sensitivity score in the assay with MDA-MB-453 [1] and with MDA-MB-453 [2] were 0.3 and 1.1, respectively.
As for `COc1cc2c(Nc3ccc(Cl)c(Cl)c3F)ncnc2cc1OC[C@@H]1C[C@@H]2CN(C)C[C@@H]2C1` [Tesevatinib], the drug sensitivity score in the assay with MDA-MB-453 [1] is 11.5; in the assay with MDA-MB-453 [2], 7.6.
Regarding `Cc1cc(-c2nc(-c3ccc(OC(F)(F)F)cc3)no2)nn1Cc1ccnc(N2CCN(C3CC3)CC2)c1` [BAY 87-2243], the results for the drug sensitivity score in the assay with MDA-MB-453 [1] and with MDA-MB-453 [2] were 10.4 and 12.2, respectively.
With `C=CC(=O)N1CCC(Oc2cc3c(Nc4ccc(Cl)c(Cl)c4F)ncnc3cc2OC)CC1` [Poziotinib], the drug sensitivity score in the assay on MDA-MB-453 [1] is 25.1; in the assay with MDA-MB-453 [2] it was 19.1.
The matching figures for `FC(F)(F)c1ccc(CNc2ccc(Cc3c[nH]c4ncc(Cl)cc34)cn2)cn1` [Pexidartinib]: 0.1 and 1.2.
The like results for `Cc1ncc(Cl)cc1NCc1ccc(C(=O)N[C@@H](CC2CCCC2)C(=O)NC2CC2)s1` were, in that order, 0.5 and 0.
The matching figures for `COc1cc2ncnc(Nc3ccc(F)c(Cl)c3)c2cc1NC(=O)/C=C/CN1CCCCC1` [Dacomitinib]: 8.6 and 7.3.
`N#CC(c1ccnc(OCc2ccc(CN3CCOCC3)cc2)n1)c1nc2ccccc2s1` (stereo not drawn) [Bentamapimod]: the drug sensitivity score in the assay on MDA-MB-453 [1] worked out at 1.3; in the assay with MDA-MB-453 [2], 2.6.
The like results for `CC(O)(CS(=O)(=O)c1ccc(F)cc1)C(=O)Nc1ccc(C#N)c(C(F)(F)F)c1` (stereo not drawn) [Bicalutamide] were, in that order, 2.3 and 2.3.
The matching figures for `CC[C@@H]1[C@H](F)C(=O)N[C@@H]1COc1nccc2cc(C(N)=O)c(OC)cc12`: 0.4 and 2.9.
The like results for `CC(C)c1cc(-c2n[nH]c(=O)n2-c2ccc3c(ccn3C)c2)c(O)cc1O` [Ganetespib] were, in that order, 18.5 and 18.7.
For the compound `CN(C)c1cc2c(cc1Sc1nc3c(N)nccc3n1CCNCC(C)(C)C)OCO2` [CUDC-305], the figures for the drug sensitivity score in the assay with MDA-MB-453 [1] and in the assay with MDA-MB-453 [2] were 15.9 and 17.6, respectively.
The like results for `COc1cc([C@@H]2c3cc4c(cc3[C@@H](O[C@@H]3O[C@@H]5CO[C@@H](c6cccs6)O[C@H]5[C@H](O)[C@H]3O)[C@H]3COC(=O)[C@H]23)OCO4)cc(OC)c1O` [Teniposide] were, in that order, 0 and 0.
Turning to `CC(C)C[C@H](NC(=O)CNC(=O)c1cc(Cl)ccc1Cl)B(O)O` [Ixazomib], the drug sensitivity score amounted to 7.4 in the assay with MDA-MB-453 [1] and 9.4 with MDA-MB-453 [2].
The like results for `COc1cc(OC)c(/C=C/S(=O)(=O)Cc2ccc(OC)c(NCC(=O)O)c2)c(OC)c1` [Rigosertib] were, in that order, 16.2 and 17.6.
Turning to `C[C@H]1C[C@@H]2[C@H]([C@@H](O)C[C@@]3(C)[C@H]2CC[C@]3(O)C(=O)CO)[C@@]2(C)C=CC(=O)C=C12` [Methylprednisolone], the drug sensitivity score in the assay with MDA-MB-453 [1] amounted to 0; in the assay with MDA-MB-453 [2], 5.2.
The matching figures for `COCC[n+]1c2c(n(Cc3cnccn3)c1C)C(=O)c1ccccc1C2=O` [Sepantronium bromide]: 33.2 and 32.9.
The like results for `CCC1(c2ccc(N)cc2)CCC(=O)NC1=O` (stereo not drawn) [Aminoglutethimide] were, in that order, 1.3 and 0.
The matching figures for `CC[C@@](C)(Nc1ccnc(-c2c[nH]c3ncccc23)n1)C(=O)NCC(F)(F)F` [Decernotinib]: 0 and 0.
Consider `CC[C@]1(O)C[C@@H]2CN(CCc3c([nH]c4ccccc34)[C@@](C(=O)OC)(c3cc4c(cc3OC)N(C)[C@H]3[C@@](O)(C(=O)OC)[C@H](OC(C)=O)[C@]5(CC)C=CCN6CC[C@]43[C@@H]65)C2)C1` [Vinblastine], for which the drug sensitivity score in the assay on MDA-MB-453 [1] was 8.4; in the assay on MDA-MB-453 [2], 10.
The matching figures for `CCc1nc(C(N)=O)c(Nc2ccc(N3CCC(N4CCN(C)CC4)CC3)c(OC)c2)nc1NC1CCOCC1` [Gilteritinib]: 0 and 0.
In the case of `N.N.[Cl][Pt][Cl]` [Cisplatin], the drug sensitivity score in the assay with MDA-MB-453 [1] and with MDA-MB-453 [2] was 6.5 each time.
With `C=CC(=O)Nc1cc(Nc2nccc(-c3cn(C)c4ccccc34)n2)c(OC)cc1N(C)CCN(C)C` [Osimertinib], the values for the drug sensitivity score in the assay with MDA-MB-453 [1] and in the assay on MDA-MB-453 [2] were 10.4 and 8, respectively.
The matching figures for `CC1=C2C[C@H]3[C@@H](CC[C@@H]4C[C@H](NS(C)(=O)=O)CC[C@@]43C)[C@@H]2CC[C@@]2(C1)O[C@@H]1C[C@H](C)CN[C@H]1[C@H]2C` [Saridegib]: 0 and 0.
The matching figures for `Cn1cc(C2=Nc3cc(NC(=O)C(N)C4CCCCC4)cc4c3C2=CNNC4=O)cn1` (stereo not drawn): 9.9 and 14.4.
The like results for `O=C(NOC[C@H](O)CO)c1ccc(F)c(F)c1Nc1ccc(I)cc1F` were, in that order, 1.1 and 1.2.
